Each structure is given as a SMILES string.

Common to all, as to format: biochemical
The target in experiment [1] is T1, ADAMTS-7 (Homo sapiens, UniProt Q9UKP4).
T1 construct: the recombinant construct ADAMTS7-T8, which lacks the C-terminal PLAC domain; made in house
T1 sequence (Q9UKP4 237-1631 limits assumed): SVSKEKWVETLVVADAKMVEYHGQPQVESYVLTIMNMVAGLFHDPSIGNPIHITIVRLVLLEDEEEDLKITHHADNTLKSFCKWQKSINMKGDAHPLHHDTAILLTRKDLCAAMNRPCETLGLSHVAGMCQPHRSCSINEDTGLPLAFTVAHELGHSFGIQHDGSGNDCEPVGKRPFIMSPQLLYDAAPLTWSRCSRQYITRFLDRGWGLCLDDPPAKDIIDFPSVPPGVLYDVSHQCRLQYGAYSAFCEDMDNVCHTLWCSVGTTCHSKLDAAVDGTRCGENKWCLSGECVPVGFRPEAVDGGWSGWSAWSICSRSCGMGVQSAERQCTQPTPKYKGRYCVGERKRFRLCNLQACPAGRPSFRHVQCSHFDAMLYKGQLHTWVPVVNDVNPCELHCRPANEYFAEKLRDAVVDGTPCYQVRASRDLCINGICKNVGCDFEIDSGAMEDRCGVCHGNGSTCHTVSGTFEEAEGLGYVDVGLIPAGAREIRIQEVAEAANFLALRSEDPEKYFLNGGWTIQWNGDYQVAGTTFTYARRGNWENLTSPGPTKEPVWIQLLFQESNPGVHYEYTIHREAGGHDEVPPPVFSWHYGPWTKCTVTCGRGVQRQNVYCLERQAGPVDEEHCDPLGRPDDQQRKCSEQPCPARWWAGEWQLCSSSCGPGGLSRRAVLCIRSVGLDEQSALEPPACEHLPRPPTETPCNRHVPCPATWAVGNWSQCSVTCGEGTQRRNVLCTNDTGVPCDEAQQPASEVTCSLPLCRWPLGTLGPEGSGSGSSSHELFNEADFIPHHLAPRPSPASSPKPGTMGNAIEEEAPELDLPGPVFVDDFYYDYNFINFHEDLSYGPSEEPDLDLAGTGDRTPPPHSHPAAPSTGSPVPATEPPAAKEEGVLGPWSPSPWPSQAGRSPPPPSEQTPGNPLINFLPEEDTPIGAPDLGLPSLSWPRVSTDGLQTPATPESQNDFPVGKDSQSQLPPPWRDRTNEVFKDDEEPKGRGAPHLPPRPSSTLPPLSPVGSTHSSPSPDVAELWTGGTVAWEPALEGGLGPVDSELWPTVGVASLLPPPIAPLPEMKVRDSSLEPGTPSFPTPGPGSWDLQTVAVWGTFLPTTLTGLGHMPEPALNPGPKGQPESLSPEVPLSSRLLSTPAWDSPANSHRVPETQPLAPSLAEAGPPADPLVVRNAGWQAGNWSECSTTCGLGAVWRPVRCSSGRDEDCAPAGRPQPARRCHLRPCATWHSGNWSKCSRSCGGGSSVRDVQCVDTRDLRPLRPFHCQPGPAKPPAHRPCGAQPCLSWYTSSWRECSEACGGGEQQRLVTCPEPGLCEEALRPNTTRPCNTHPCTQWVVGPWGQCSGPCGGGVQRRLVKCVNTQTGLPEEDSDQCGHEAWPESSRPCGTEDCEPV
Description: Inhibition of ADAMTS-7 cleavage of FRET substrate ATS7FP7. As for the experimental part:
All enzyme assays were conducted in TNC-B buffer (50 mM Tris- HCl, pH 7.5, 150 mM NaCl, 10 mM CaCl2, and 0.02% NaN3) at 37 °C in 384 well plates (Cat. No: 784900, Greiner Bio-One, Austria). To avoid the formation of inhibitor or peptide aggregates, the detergent Brij-35 (0.05%) was added to TNC-B[13]. For inhibition studies, stock solutions of chemical compounds were prepared in dimethyl sulfoxide (DMSO) (10 mM). […] Blank samples were prepared using buffer only and the rate of cleavage for blank reactions was subtracted from the rates measured in the presence of enzyme. Upon addition of the indicated ADAMTS-7 FRET substrates (40 µM), the fluorescence was measured immediately using a FLUOstar Omega microplate reader (BMG Labtech, Germany) with an excitation filter wavelength of 485 nm and an emission filter wavelength of 520 nm.

Experiment [2] deals with T1, ADAMTS-7. Description: LTBP4S-A cleavage assay (SDS-PAGE, densitometry). On the procedure:
LTBP4S-A cleavage assays were performed as before[8] with small modifications. Here, ADAMTS-7 –T8 (19 nM) was pre-incubated either in the absence or presence of the indicated inhibitors for 2 h at 37 °C before addition of […] (5.6 µM). After 17 h, proteolysis was stopped by addition of Bolt^TM LDS Sample Buffer, 5% β-mercaptoethanol, and heating to 95 °C. Samples were frozen at […] before use. For SDS-PAGE analysis, 12% Bis-Tris Plus Gels (ThermoFisher) were used and stained for 6 h with Imperial protein stain (ThermoFisher). Gels were destained overnight in pure water at room temperature on an orbital shaker and scanned for analysis of LTBP4S-A cleavage bands. To accurately determine cleavage inhibition from each inhibitor, inhibition was quantified by densitometry of the bands corresponding to cleavage products using ImageJ software. The data were plotted using GraphPad Prism 7.0.

In the next experiment the target is T2, MMP-2 (Homo sapiens, UniProt P08253).
T2 sequence (P08253 110-660): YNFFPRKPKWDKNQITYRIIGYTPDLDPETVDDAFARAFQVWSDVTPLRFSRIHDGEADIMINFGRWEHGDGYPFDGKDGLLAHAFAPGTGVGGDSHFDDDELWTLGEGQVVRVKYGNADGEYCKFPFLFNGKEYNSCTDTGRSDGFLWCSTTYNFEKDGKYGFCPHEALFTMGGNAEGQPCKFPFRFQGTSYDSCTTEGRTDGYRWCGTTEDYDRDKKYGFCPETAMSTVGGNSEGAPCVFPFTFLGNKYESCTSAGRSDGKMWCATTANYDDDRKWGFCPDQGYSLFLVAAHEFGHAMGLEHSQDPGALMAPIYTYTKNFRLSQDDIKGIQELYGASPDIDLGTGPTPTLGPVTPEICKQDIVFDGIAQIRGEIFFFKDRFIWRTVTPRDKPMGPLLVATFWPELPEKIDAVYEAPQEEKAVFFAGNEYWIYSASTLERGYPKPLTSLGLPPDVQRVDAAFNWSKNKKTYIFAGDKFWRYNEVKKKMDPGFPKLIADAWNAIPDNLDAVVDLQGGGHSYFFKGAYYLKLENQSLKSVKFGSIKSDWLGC
The experiment is described as follows: MMP-2 FRET peptide inhibition assay. As to conditions: Cheng-Prusoff, read-out: Ki app MMP-2. An excerpt:
Substrate and Km values are in micromolar.
2,3-diaminopropionyl diaminopropionic amide; Fam, 5,6-carboxyfluorescein; Mca, 7-
Enzyme Substrate [S] Km Reference

Consider `O=C(NCCC[C@@H](NS(=O)(=O)c1ccc(OCc2ccc(F)cc2Cl)cc1)C(=O)NO)c1ccccc1` [EDV33], for which the IC50 amounted to 0.33 ± 0.07 µM at ADAMTS-7 [1] (ATS7FP7 40 μM, 1 h preincubation, 37 °C) and 0.112 ± 0.014 µM on ADAMTS-7 [2] (ADAMTS-7 19 nM, 2 h preincubation, LTBP4S-A 5.6 μM, 17 h, read-out: IC50 (LTBP4S-A substrate)). The figures for the “increase of ADAMTS-7 inhibition relative to JG23” value on ADAMTS-7 [1] (against ATS7FP7) and at ADAMTS-7 [2] (against LTBP4S-A) were “approximately 2 fold” and 5.1 fold, respectively. Further, the Ki was found to be 0.068 ± 0.014 µM at ADAMTS-7 [1] (read-out: Ki app (ATS7FP7 substrate)) and 0.004 ± 0.0003 µM on MMP-2.
